Results from ChEMBL document CHEMBL1155868, “N-Benzyl-N-(pyrrolidin-3-yl)carboxamides as a new class of selective dual serotonin/noradrenaline reuptake inhibitors” (Bioorg Med Chem Lett, 2008).

Tests used:
[1] = target: Sodium-dependent dopamine transporter (Homo sapiens, UniProt Q01959); test: Inhibition of [3H]DA reuptake at human dopamine transporter expressed in HEK293 cells by scintillation counting; type: cell-based
[2] = Distribution coefficient, log D at pH 7.4; type: physicochemical; details: octanol/water
[3] = Dissociation constant, pKa of the compound; type: physicochemical
[4] = Metabolic stability assessed as half life in human liver microsomes; type: ADME, Microsome
Cytochrome P450 2D6 = Cytochrome P450 2D6 (Homo sapiens, UniProt P10635); test: Inhibition of CYP2D6; type: ADME
Chain of Cytochrome P450 2D6 (P10635 whole entry): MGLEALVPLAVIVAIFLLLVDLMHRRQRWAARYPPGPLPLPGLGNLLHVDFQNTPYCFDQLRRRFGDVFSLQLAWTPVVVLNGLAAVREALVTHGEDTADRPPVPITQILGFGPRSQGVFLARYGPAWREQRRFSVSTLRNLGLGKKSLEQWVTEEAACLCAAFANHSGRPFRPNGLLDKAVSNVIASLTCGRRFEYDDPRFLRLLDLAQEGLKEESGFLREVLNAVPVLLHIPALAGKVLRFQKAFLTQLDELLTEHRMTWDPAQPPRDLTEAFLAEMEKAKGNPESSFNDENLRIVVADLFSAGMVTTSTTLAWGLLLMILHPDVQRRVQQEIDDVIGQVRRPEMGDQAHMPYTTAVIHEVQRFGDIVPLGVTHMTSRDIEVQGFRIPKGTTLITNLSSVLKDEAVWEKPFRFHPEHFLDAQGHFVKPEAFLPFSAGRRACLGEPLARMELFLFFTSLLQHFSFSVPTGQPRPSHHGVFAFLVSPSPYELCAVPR

[5] = target: Voltage-gated inwardly rectifying potassium channel KCNH2 (Homo sapiens, UniProt Q12809); test: Inhibition of human ERG potassium channel
Chain of Voltage-gated inwardly rectifying potassium channel KCNH2 (Q12809 whole entry): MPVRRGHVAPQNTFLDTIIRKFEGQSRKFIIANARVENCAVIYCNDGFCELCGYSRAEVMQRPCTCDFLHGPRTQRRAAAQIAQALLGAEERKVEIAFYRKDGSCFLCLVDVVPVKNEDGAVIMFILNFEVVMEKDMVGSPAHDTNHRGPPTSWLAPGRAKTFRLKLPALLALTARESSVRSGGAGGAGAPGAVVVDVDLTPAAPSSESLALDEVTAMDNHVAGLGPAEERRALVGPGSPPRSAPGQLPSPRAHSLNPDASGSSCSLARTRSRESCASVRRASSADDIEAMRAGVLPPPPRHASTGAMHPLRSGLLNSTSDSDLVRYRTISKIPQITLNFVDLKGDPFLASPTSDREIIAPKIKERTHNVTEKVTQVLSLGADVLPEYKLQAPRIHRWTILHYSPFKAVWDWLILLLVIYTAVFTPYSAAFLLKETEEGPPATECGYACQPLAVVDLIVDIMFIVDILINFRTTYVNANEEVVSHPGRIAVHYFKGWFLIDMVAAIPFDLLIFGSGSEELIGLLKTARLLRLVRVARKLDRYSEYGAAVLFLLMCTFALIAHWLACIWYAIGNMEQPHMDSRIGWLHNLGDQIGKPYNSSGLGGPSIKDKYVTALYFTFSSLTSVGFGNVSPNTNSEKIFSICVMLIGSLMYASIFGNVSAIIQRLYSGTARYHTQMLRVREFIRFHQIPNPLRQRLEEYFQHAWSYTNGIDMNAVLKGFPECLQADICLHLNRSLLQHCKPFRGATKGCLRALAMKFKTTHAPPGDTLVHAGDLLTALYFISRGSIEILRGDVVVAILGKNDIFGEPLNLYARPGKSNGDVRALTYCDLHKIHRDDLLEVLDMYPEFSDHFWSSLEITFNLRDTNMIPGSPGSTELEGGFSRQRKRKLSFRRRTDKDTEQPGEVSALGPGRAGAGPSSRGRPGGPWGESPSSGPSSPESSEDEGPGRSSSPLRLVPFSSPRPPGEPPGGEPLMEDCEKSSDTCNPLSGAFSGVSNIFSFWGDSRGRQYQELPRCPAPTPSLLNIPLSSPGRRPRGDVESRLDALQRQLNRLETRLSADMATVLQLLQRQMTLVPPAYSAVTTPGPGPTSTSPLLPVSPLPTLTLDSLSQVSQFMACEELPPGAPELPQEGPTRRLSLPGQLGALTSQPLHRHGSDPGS

Cytochrome P450 1A2 = target: T1, Cytochrome P450 1A2 (Homo sapiens, UniProt P05177); test: Inhibition of CYP1A2; type: ADME
T1 sequence (P05177 whole entry): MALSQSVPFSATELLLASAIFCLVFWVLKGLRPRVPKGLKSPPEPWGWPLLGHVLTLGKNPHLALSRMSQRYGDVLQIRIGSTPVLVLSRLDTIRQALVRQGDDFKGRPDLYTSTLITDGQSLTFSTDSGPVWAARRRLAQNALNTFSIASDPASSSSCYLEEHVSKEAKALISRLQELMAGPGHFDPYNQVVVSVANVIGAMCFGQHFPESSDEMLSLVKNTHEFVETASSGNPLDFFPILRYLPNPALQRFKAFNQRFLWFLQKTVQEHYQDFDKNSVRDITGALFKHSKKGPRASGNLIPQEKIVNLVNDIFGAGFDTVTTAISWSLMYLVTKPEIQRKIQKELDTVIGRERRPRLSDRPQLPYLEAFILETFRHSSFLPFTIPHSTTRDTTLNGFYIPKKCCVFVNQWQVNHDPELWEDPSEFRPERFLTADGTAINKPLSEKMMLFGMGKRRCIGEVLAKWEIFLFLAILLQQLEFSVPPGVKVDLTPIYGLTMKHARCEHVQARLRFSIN

Cytochrome P450 2C9 = Cytochrome P450 2C9 (Homo sapiens, UniProt P11712); test: Inhibition of CYP2C9; type: ADME
Chain of Cytochrome P450 2C9 (P11712 whole entry): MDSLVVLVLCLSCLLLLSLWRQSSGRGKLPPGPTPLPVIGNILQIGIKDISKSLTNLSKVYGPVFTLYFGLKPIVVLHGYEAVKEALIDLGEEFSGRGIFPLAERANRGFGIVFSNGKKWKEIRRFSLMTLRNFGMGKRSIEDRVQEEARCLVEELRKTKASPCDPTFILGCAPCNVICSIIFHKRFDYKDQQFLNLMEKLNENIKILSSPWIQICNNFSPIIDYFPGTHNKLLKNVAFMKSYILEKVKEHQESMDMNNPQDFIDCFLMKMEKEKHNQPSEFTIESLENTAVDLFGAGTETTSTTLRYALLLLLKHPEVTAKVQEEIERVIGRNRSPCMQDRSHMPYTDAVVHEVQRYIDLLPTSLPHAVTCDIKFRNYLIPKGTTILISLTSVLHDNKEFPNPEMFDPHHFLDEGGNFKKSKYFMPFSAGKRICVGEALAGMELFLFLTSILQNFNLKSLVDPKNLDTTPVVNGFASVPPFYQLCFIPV

Cytochrome P450 2C19 = Cytochrome P450 2C19 (Homo sapiens, UniProt P33261); test: Inhibition of CYP2C19; type: ADME
Chain of Cytochrome P450 2C19 (P33261 whole entry): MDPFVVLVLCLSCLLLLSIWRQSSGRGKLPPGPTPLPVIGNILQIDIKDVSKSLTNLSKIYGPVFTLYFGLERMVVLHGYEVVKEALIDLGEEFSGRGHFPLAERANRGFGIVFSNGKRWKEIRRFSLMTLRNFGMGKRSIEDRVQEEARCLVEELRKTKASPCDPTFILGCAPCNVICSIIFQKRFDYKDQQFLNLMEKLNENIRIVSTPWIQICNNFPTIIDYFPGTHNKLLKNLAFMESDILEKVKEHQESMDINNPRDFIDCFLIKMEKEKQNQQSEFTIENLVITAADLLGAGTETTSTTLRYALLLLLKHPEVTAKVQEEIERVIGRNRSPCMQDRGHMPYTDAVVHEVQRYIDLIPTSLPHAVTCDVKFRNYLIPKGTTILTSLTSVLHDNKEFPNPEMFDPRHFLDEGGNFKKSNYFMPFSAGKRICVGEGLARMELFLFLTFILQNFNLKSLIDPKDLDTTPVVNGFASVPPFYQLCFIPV

Cytochrome P450 3A4 = Cytochrome P450 3A4 (Homo sapiens, UniProt P08684); test: Inhibition of CYP3A4; type: ADME
Chain of Cytochrome P450 3A4 (P08684 whole entry): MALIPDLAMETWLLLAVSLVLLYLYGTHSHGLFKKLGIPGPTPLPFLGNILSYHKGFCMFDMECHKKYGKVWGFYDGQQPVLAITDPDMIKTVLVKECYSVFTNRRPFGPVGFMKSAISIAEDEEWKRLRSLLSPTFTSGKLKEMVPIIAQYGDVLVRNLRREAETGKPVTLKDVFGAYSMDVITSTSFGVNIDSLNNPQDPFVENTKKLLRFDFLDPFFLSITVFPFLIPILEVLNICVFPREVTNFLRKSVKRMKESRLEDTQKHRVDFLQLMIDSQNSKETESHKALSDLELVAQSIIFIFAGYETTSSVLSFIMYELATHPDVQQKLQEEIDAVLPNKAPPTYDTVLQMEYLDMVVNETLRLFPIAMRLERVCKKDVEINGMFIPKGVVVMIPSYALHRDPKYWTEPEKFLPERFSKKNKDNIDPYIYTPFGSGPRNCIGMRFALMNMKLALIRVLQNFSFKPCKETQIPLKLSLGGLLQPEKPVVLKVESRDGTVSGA

[6] = Half life in dog at 0.01 mg/kg, iv; type: ADME, organism-based, Canis lupus familiaris; design: dose 0.01 mg/kg, route intravenous; details: in vivo
[7] = Clearance in dog at 0.01 mg/kg, iv; type: ADME, organism-based, Canis lupus familiaris; design: dose 0.01 mg/kg, route intravenous; details: in vivo
[8] = Volume of distribution in dog at 0.01 mg/kg, iv; type: ADME, organism-based, Canis lupus familiaris; design: dose 0.01 mg/kg, route intravenous; details: in vivo
[9] = Half life in dog at 0.013 mg/kg, po; type: ADME, organism-based, Canis lupus familiaris; design: dose 0.013 mg/kg, route oral; details: in vivo
[10] = Bioavailability in dog at 0.013 mg/kg, po; type: ADME, organism-based, Canis lupus familiaris; details: in vivo
[11] = Metabolic stability assessed as half life in dog liver microsomes; type: ADME, Canis lupus familiaris, Microsome
in vitro = details: human, hepatocytes
Description: Intrinsic clearance in human hepatocytes assessed per million cells

[12] = target: Sodium-dependent serotonin transporter (Homo sapiens, UniProt P31645); test: Inhibition of [3H]5HT reuptake at human serotonin transporter expressed in HEK293 cells by scintillation counting; type: cell-based
Chain of Sodium-dependent serotonin transporter (P31645 whole entry): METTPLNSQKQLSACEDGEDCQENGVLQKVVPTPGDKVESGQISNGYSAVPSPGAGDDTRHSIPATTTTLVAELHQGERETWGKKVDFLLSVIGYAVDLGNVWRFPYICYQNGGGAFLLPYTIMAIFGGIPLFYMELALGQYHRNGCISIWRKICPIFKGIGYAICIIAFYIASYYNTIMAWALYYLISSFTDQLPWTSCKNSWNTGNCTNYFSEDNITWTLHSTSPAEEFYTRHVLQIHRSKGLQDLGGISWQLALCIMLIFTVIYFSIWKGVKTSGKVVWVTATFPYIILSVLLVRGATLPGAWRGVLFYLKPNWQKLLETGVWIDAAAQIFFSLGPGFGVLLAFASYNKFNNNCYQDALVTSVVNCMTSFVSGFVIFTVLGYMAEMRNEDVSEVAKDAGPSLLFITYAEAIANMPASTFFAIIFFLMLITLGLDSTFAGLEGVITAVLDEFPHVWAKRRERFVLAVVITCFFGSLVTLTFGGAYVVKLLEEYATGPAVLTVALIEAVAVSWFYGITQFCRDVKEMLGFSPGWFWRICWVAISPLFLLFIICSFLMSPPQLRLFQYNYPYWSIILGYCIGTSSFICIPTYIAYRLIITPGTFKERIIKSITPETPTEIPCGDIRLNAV

[13] = target: Sodium-dependent noradrenaline transporter (Homo sapiens, UniProt P23975)
Chain of Sodium-dependent noradrenaline transporter (P23975 whole entry): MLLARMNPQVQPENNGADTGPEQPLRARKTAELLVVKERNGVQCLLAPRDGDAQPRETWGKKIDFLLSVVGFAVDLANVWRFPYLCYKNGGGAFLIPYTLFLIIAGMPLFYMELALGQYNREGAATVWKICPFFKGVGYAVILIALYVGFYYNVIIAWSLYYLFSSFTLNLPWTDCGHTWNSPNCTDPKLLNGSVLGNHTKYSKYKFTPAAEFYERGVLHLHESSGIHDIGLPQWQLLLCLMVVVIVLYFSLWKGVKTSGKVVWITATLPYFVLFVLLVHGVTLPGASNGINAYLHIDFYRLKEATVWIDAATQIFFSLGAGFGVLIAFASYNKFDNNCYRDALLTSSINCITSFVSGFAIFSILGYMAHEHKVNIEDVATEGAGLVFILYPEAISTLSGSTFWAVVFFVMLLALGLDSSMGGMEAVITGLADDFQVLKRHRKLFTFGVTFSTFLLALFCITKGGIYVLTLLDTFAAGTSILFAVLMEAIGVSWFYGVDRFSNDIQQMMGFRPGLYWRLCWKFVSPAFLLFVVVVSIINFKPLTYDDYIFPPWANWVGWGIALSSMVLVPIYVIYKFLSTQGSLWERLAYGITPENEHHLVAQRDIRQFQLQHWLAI
Description: Inhibition of [3H]NA reuptake in human noradrenaline transporter expressed in HEK293 cells by scintillation counting

Chain of Sodium-dependent dopamine transporter (Q01959 whole entry): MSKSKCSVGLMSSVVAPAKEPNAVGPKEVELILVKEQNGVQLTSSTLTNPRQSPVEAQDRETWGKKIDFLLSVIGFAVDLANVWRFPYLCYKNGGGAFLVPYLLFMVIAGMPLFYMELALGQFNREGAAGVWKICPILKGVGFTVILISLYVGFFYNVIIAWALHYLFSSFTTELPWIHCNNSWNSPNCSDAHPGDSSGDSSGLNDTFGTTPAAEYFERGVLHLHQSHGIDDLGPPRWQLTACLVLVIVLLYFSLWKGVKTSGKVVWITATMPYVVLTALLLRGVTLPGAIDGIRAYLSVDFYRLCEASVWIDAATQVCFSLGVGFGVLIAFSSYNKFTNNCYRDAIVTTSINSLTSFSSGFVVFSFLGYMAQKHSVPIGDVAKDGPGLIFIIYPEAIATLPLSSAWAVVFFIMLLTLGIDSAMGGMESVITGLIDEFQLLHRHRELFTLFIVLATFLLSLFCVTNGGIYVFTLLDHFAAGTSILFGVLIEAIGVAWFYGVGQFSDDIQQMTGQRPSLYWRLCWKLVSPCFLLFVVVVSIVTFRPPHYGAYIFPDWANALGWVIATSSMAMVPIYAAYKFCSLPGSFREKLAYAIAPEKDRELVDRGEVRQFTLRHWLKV

SMILES	IC50 [12] [nM]	IC50 [13] [nM]	further results
CC(C)C(=O)N(Cc1cccc(Cl)c1Cl)[C@H]1CCNC1	–	–	IC50 [1]: 1270 nM; logD [2]: 0.8; pKa [3]: 9.4; half-life [4]: > 2 h; IC50 (Cytochrome P450 2D6): 27100 nM; IC50 [5]: 24700 nM; Activity (Cytochrome P450 1A2): Not Active; Activity (Cytochrome P450 2C9): Not Active; Activity (Cytochrome P450 2C19): Not Active; IC50 (Cytochrome P450 3A4): 17900 nM; half-life [6]: 5.7 h; clearance [7]: 1.1 mL/min/kg; Vd [8]: 0.5 L/kg; half-life [9]: 5.7 h; bioavailability [10]: 91%; half-life [11]: 0.583 h; hepatocyte CLint (in vitro): 2.7 µL/min/1e6 cells
CCCCC(=O)N(Cc1ccc(Cl)cc1Cl)[C@H]1CCNC1	33	70	–
O=C(C1CCOCC1)N(Cc1cccc(Cl)c1Cl)[C@H]1CCNC1	123	300	–
CCCC(=O)N(Cc1ccc(Cl)cc1Cl)[C@H]1CCNC1	72	31	–
CC(C)C(=O)N(Cc1ccccc1-c1ccccc1)[C@H]1CCNC1	> 400	14	–
CC(C)C(=O)N(Cc1cc(Cl)cc(Cl)c1Cl)[C@H]1CCNC1	44	29	IC50 [1]: 21600 nM
CC(C)C(=O)N(Cc1cccc(Cl)c1Cl)[C@@H]1CCNC1	5	–	IC50 [1]: 1120 nM
CC(C)(C)C(=O)N(Cc1ccc(Cl)cc1Cl)[C@H]1CCNC1	41	92	–
CC(C)C(=O)N(Cc1ccc(F)cc1Cl)[C@H]1CCNC1	161	98	–
CCC(=O)N(Cc1ccc(Cl)cc1Cl)[C@H]1CCNC1	25	60	–
CC(C)(C)C(=O)N(Cc1cccc(Cl)c1Cl)[C@H]1CCNC1	26	> 322	–
CC(C)C(=O)N(Cc1ccccc1Cl)[C@H]1CCNC1	91	114	–
O=C(c1ccccc1)N(Cc1ccc(Cl)cc1Cl)[C@H]1CCNC1	195	94	–
O=C(C1CCC1)N(Cc1ccc(Cl)cc1Cl)[C@H]1CCNC1	41	64	–
CC(C)CC(=O)N(Cc1cccc(Cl)c1Cl)[C@H]1CCNC1	17	62	–
CC(C)(C)CC(=O)N(Cc1ccc(Cl)cc1Cl)[C@H]1CCNC1	27	39	IC50 [1]: 10200 nM
CC(C)C(=O)N(Cc1ccc(Cl)cc1Cl)[C@H]1CCNC1	13	28	IC50 [1]: > 40000 nM; logD [2]: 0.8; half-life [4]: > 2 h; IC50 (Cytochrome P450 2D6): 21800 nM; IC50 [5]: 40200 nM; hepatocyte CLint (in vitro): 4.8 µL/min/1e6 cells
CC(C)CC(=O)N(Cc1ccc(Cl)cc1Cl)[C@H]1CCNC1	93	31	–
O=C(C1CC1)N(Cc1ccc(Cl)cc1Cl)[C@H]1CCNC1	38	25	–
CC(C)C(=O)N(Cc1ccc(F)cc1F)[C@H]1CCNC1	> 400	> 400	–
CC(C)C(=O)N(Cc1ccc(Cl)c(Cl)c1Cl)[C@H]1CCNC1	5	16	IC50 [1]: 5870 nM; logD [2]: 1.3; half-life [4]: > 2 h; IC50 (Cytochrome P450 2D6): 17600 nM; IC50 [5]: > 6870 nM; hepatocyte CLint (in vitro): 8.8 µL/min/1e6 cells
CC(C)C(=O)N(Cc1ccc(C(F)(F)F)cc1F)[C@H]1CCNC1	24	> 400	–
